pKi: −log10 of the molar value.
The compounds below were run against T1, chimeric human H3 receptor (Homo sapiens, UniProt Q9Y5N1, E19D) (assay: Chimeric human H3 receptor GTP binding assay (agonist-stimulated GTP-gamma35S binding, Example 7)). Conditions: Table II "Ki", symbol "*": Ki in the assay of Example 7; read-out: Ki.
T1 construct: made in house; host or cells: Sf9 insect cells (baculovirus infection); P2 membrane preparation
Assay type: biochemical
How it was run: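 Sf9 membranes co-expressing the chimeric receptor and heterotrimeric G-protein subunits, 35 μg protein per tube, in pH 7.4 Tris buffer with 10 μM GDP. Test compounds at 10^−10 to 10^−6 M with 1 μM histamine, 60 min at room temperature. Filter-bound GTP-gamma^35S read by scintillation; IC50 from non-linear regression of dose-response curves.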

T1 sequence (Q9Y5N1 with tags, fused parts or gaps E19D): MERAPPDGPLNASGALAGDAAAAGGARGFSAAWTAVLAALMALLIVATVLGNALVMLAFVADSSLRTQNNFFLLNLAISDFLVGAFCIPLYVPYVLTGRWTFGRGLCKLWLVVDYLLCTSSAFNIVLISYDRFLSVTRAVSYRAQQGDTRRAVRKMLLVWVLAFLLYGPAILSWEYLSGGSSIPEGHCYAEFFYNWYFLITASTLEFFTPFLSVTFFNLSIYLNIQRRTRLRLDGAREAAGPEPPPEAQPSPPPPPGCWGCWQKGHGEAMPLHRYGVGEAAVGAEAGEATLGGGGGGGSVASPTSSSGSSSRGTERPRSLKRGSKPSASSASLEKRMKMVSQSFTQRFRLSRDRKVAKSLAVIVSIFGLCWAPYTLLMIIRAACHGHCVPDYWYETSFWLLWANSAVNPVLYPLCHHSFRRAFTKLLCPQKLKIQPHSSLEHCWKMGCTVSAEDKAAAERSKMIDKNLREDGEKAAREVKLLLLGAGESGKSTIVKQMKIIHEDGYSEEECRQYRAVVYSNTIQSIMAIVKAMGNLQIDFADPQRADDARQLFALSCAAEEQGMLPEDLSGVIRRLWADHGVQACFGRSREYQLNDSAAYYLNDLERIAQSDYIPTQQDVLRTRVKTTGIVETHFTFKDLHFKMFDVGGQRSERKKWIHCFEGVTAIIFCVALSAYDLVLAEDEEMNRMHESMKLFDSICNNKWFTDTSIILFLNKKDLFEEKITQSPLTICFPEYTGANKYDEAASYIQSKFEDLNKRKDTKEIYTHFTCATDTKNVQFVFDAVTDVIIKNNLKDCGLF

pKi	Compound
> 6.00	O=C(CN1CCN(c2cnc(-c3cccc(OC(F)(F)F)c3)cn2)CC1)N1CCN(C2CCC2)CC1 [Compound 937, 2-{4-[2-(4-cyclobutylpiperazin-1-yl)-2-oxoethyl]piperazin-1-yl}-5-[3-(trifluoromethoxy)phenyl] pyrazine]
> 6.00	CSc1cccc(-c2cnc(N3CCN(CC(=O)N4CCN(C5CCC5)CC4)CC3)cn2)c1 [Compound 938, 2-{4-[2-(4-cyclobutylpiperazin-1-yl)-2-oxoethyl]piperazin-1-yl}-5-[3-(methylthio)phenyl] pyrazine]

Second part, the compound before the results:

Compound	pKi
Cc1ccc(-c2cnc(N3CCN(CC(=O)N4CCN(C5CCC5)CC4)CC3)cn2)cc1F [Compound 922, 2-{4-[2-(4-cyclobutylpiperazin-1-yl)-2-oxoethyl]piperazin-1-yl}-5-(3-fluoro-4-methylphenyl)pyrazine]	> 6.00
Cc1cc(-c2cnc(N3CCN(CC(=O)N4CCN(C5CCC5)CC4)CC3)cn2)ccc1F [Compound 923, 2-{4-[2-(4-cyclobutylpiperazin-1-yl)-2-oxoethyl]piperazin-1-yl}-5-(4-fluoro-3-methylphenyl)pyrazine]	> 6.00
Cc1cccc(-c2cnc(N3CCN(CC(=O)N4CCN(C5CCC5)CC4)CC3)cn2)c1 [Compound 924, 2-{4-[2-(4-cyclobutylpiperazin-1-yl)-2-oxoethyl]piperazin-1-yl}-5-(3-methylphenyl)pyrazine]	> 6.00
Cc1ccc(-c2cnc(N3CCN(CC(=O)N4CCN(C5CCC5)CC4)CC3)cn2)cc1 [Compound 925, 2-{4-[2-(4-cyclobutylpiperazin-1-yl)-2-oxoethyl]piperazin-1-yl}-5-(4-methylphenyl)pyrazine]	> 6.00
CC(C)c1cccc(-c2cnc(N3CCN(CC(=O)N4CCN(C5CCC5)CC4)CC3)cn2)c1 [Compound 926, 2-{4-[2-(4-cyclobutylpiperazin-1-yl)-2-oxoethyl]piperazin-1-yl}-5-(3-isopropylphenyl)pyrazine]	> 6.00
CC(C)c1ccc(-c2cnc(N3CCN(CC(=O)N4CCN(C5CCC5)CC4)CC3)cn2)cc1 [Compound 927, 2-{4-[2-(4-cyclobutylpiperazin-1-yl)-2-oxoethyl]piperazin-1-yl}-5-(4-isopropylphenyl)pyrazine]	> 6.00
Cc1ccc(-c2cnc(N3CCN(CC(=O)N4CCN(C5CCC5)CC4)CC3)cn2)cc1C [Compound 928, 2-{4-[2-(4-cyclobutylpiperazin-1-yl)-2-oxoethyl]piperazin-1-yl}-5-(3,4-dimethylphenyl)pyrazine]	> 6.00
Cc1cc(C)cc(-c2cnc(N3CCN(CC(=O)N4CCN(C5CCC5)CC4)CC3)cn2)c1 [Compound 929, 2-{4-[2-(4-cyclobutylpiperazin-1-yl)-2-oxoethyl]piperazin-1-yl}-5-(3,5-dimethylphenyl)pyrazine]	> 6.00
CCc1ccc(-c2cnc(N3CCN(CC(=O)N4CCN(C5CCC5)CC4)CC3)cn2)cc1 [Compound 930, 2-{4-[2-(4-cyclobutylpiperazin-1-yl)-2-oxoethyl]piperazin-1-yl}-5-(4-ethylphenyl)pyrazine]	> 6.00
CCCc1ccc(-c2cnc(N3CCN(CC(=O)N4CCN(C5CCC5)CC4)CC3)cn2)cc1 [Compound 931, 2-{4-[2-(4-cyclobutylpiperazin-1-yl)-2-oxoethyl]piperazin-1-yl}-5-(4-propylphenyl)pyrazine]	> 6.00
CCc1cccc(-c2cnc(N3CCN(CC(=O)N4CCN(C5CCC5)CC4)CC3)cn2)c1 [Compound 932, 2-{4-[2-(4-cyclobutylpiperazin-1-yl)-2-oxoethyl]piperazin-1-yl}-5-(3-ethylphenyl)pyrazine]	> 6.00
COc1cccc(-c2cnc(N3CCN(CC(=O)N4CCN(C5CCC5)CC4)CC3)cn2)c1 [Compound 933, 2-{4-[2-(4-cyclobutylpiperazin-1-yl)-2-oxoethyl]piperazin-1-yl}-5-(3-methoxyphenyl)pyrazine]	> 6.00
O=C(CN1CCN(c2cnc(-c3ccc(OC(F)(F)F)cc3)cn2)CC1)N1CCN(C2CCC2)CC1 [Compound 934, 2-{4-[2-(4-cyclobutylpiperazin-1-yl)-2-oxoethyl]piperazin-1-yl}-5-[4-(trifluoromethoxy)phenyl] pyrazine]	> 6.00
CCOc1cccc(-c2cnc(N3CCN(CC(=O)N4CCN(C5CCC5)CC4)CC3)cn2)c1 [Compound 935, 2-{4-[2-(4-cyclobutylpiperazin-1-yl)-2-oxoethyl]piperazin-1-yl}-5-(3-ethoxyphenyl)pyrazine]	> 6.00
O=C(CN1CCN(c2cnc(-c3ccc(Oc4ccccc4)cc3)cn2)CC1)N1CCN(C2CCC2)CC1 [Compound 936, 2-{4-[2-(4-cyclobutylpiperazin-1-yl)-2-oxoethyl]piperazin-1-yl}-5-(4-phenoxyphenyl)pyrazine]	> 6.00

Same assay, conditions: Table II; assay of Example 7; "*" in Ki; read-out: Ki

pKi	Compound
> 6.00	COc1ccc(-c2ccc(-c3cnc(N4CCN(CC(=O)N5CCN(C6CCC6)CC5)CC4)cn3)cc2)cc1 [Compound 939, 2-{4-[2-(4-cyclobutylpiperazin-1-yl)-2-oxoethyl]piperazin-1-yl}-5-(4′-methoxybiphenyl-4-yl)pyrazine]
> 6.00	COc1cc(F)c(-c2cnc(N3CCN(CC(=O)N4CCN(C5CCC5)CC4)CC3)cn2)cc1F [Compound 940, 2-{4-[2-(4-cyclobutylpiperazin-1-yl)-2-oxoethyl]piperazin-1-yl}-5-(2,5-difluoro-4-methoxyphenyl)pyrazine]
> 6.00	COc1ccc2cc(-c3cnc(N4CCN(CC(=O)N5CCN(C6CCC6)CC5)CC4)cn3)ccc2c1 [Compound 941, 2-{4-[2-(4-cyclobutylpiperazin-1-yl)-2-oxoethyl]piperazin-1-yl}-5-(6-methoxy-2-naphthyl)pyrazine]
> 6.00	CC(C)Oc1cccc(-c2cnc(N3CCN(CC(=O)N4CCN(C5CCC5)CC4)CC3)cn2)c1 [Compound 942, 2-{4-[2-(4-cyclobutylpiperazin-1-yl)-2-oxoethyl]piperazin-1-yl}-5-(3-isopropoxyphenyl) pyrazine]
> 6.00	COc1cc(-c2cnc(N3CCN(CC(=O)N4CCN(C5CCC5)CC4)CC3)cn2)cc(OC)c1OC [Compound 943, 2-{4-[2-(4-cyclobutylpiperazin-1-yl)-2-oxoethyl]piperazin-1-yl}-5-(3,4,5-trimethoxyphenyl)pyrazine]
> 6.00	COc1ccc(-c2cnc(N3CCN(CC(=O)N4CCN(C5CCC5)CC4)CC3)cn2)cc1 [Compound 944, 2-{4-[2-(4-cyclobutylpiperazin-1-yl)-2-oxoethyl]piperazin-1-yl}-5-(4-methoxyphenyl)pyrazine]
> 6.00	COc1ccc(-c2cnc(N3CCN(CC(=O)N4CCN(C5CCC5)CC4)CC3)cn2)cc1OC [Compound 945, 2-{4-[2-(4-cyclobutylpiperazin-1-yl)-2-oxoethyl]piperazin-1-yl}-5-(3,4-dimethoxyphenyl) pyrazine]
> 6.00	CCOc1ccc(-c2cnc(N3CCN(CC(=O)N4CCN(C5CCC5)CC4)CC3)cn2)cc1 [Compound 946, 2-{4-[2-(4-cyclobutylpiperazin-1-yl)-2-oxoethyl]piperazin-1-yl}-5-(4-ethoxyphenyi)pyrazine]
> 6.00	O=C(CN1CCN(c2cnc(-c3ccc4c(c3)OCCO4)cn2)CC1)N1CCN(C2CCC2)CC1 [Compound 947, 2-{4-[2-(4-cyclobutylpiperazin-1-yl)-2-oxoethyl]piperazin-1-yl}-5-(2,3-dihydro-1,4-benzodioxin-6-yl)pyrazine]
> 6.00	COc1ccc(-c2cnc(N3CCN(CC(=O)N4CCN(C5CCC5)CC4)CC3)cn2)cc1C [Compound 948, 2-{4-[2-(4-cyclobutylpiperazin-1-yl)-2-oxoethyl]piperazin-1-yl}-5-(4-methoxy-3-methylphenyl)pyrazine]
> 6.00	CCCOc1ccc(-c2cnc(N3CCN(CC(=O)N4CCN(C5CCC5)CC4)CC3)cn2)cc1 [Compound 949, 2-{4-[2-(4-cyclobutylpiperazin-1-yl)-2-oxoethyl]piperazin-1-yl}-5-(4-propoxyphenyl)pyrazine]
> 6.00	COc1ccc(-c2cnc(N3CCN(CC(=O)N4CCN(C5CCC5)CC4)CC3)cn2)c(C)c1 [Compound 950, 2-{4-[2-(4-cyclobutylpiperazin-1-yl)-2-oxoethyl]piperazin-1-yl}-5-(4-methoxy-2-methylphenyl)pyrazine]
> 6.00	COc1ccccc1-c1cnc(N2CCN(CC(=O)N3CCN(C4CCC4)CC3)CC2)cn1 [Compound 951, 2-{4-[2-(4-cyclobutylpiperazin-1-yl)-2-oxoethyl]piperazin-1-yl}-5-(2-methoxyphenyl)pyrazine]
> 6.00	COc1ccc(C(C)C)cc1-c1cnc(N2CCN(CC(=O)N3CCN(C4CCC4)CC3)CC2)cn1 [Compound 952, 2-{4-[2-(4-cyclobutylpiperazin-1-yl)-2-oxoethyl]piperazin-1-yl}-5-(5-isopropyl-2-methoxyphenyl)pyrazine]
> 6.00	COc1ccc(OC)c(-c2cnc(N3CCN(CC(=O)N4CCN(C5CCC5)CC4)CC3)cn2)c1 [Compound 953, 2-{4-[2-(4-cyclobutylpiperazin-1-yl)-2-oxoethyl]piperazin-1-yl}-5-(2,5-dimethoxyphenyl) pyrazine]
> 6.00	COc1ccc(-c2cnc(N3CCN(CC(=O)N4CCN(C5CCC5)CC4)CC3)cn2)c(OC)c1 [Compound 954, 2-{4-[2-(4-cyclobutylpiperazin-1-yl)-2-oxoethyl]piperazin-1-yl}-5-(2,4-dimethoxyphenyl) pyrazine]
> 6.00	CCOc1ccccc1-c1cnc(N2CCN(CC(=O)N3CCN(C4CCC4)CC3)CC2)cn1 [Compound 955, 2-{4-[2-(4-cyclobutylpiperazin-1-yl)-2-oxoethyl]piperazin-1-yl}-5-(2-ethoxyphenyl)pyrazine]
> 6.00	O=C(CN1CCN(c2cnc(-c3cccc4c3oc3ccccc34)cn2)CC1)N1CCN(C2CCC2)CC1 [Compound 956, 2-{4-[2-(4-cyclobutylpiperazin-1-yl)-2-oxoethyl]piperazin-1-yl}-5-dibenzo[b,d]furan-4-ylpyrazine]

— patent US7851474B2, “Dipiperazinyl ketones and related analogues” (Neurogen Corporation, priority 2005, dated 2010)
